Experiment [1] concerns the target wt-OMVs. Put plainly: SPR steady-state affinity of reversible (saw-tooth) binding, wt-OMVs. Details: species or system E. coli. The settings on record: n=4, (SD), read-out: Apparent KD. Here is the method:
An apparent-KD was measured for the reversible saw-tooth binding profile where polymyxin B was titrated over an OMV surface pre-saturated with the stable binding component (Supplementary Information Fig. S11B). […] No pre-saturation was necessary when using resistant-OMVs or PMBN as these lack the stable component (Fig. 2B, D–F).
Binding and kinetic analysis of SPR-OMV assays
To determine the apparent- KD of the reversible binding event of polymyxin B, single-cycle kinetics were performed as described in Materials and Methods. After OMVs were loaded, 5 µM polymyxin B was injected for 360 sec ([…] flow rate) followed by 120 sec dissociations to saturate the stable-binding population prior to the sample injections. The base-to-peak value of each trace was determined from double-referenced traces (reference 1: - OMVs/ + compound channel; reference 2: + OMVs/ - compound) exported from the Biacore S200 evaluation software into PRISM 9 software. The change in RU with each pulse was plotted over the concentration and the KD determined by fitting a non-linear regression, one-site total function with background parameter set to 0 (GraphPad Prism version 9.3.1 for Mac, GraphPad Software, San Diego, California USA, www.graphpad.com). […]

Experiment [2] deals with E. coli PmrA^G53E. The experiment is classed as cell-based. Conditions: for MIC: LB + 0.0005% tween-80, overnight 37 °C. How it is done:
(§1) Bacterial strains and plasmids are listed in SI Table S5. LB growth media was prepared according to manufacturer’s instructions and supplemented with 0.2% arabinose and carbenicillin (50 μg/mL) for the strains containing pBAD24-mcr1 plasmid. Cultures were started by inoculating 3 ml LB with 1–2 colonies from fresh overnight plates and grown at 37 °C until in log phase. Modified minimal inhibitory concentration (MIC) assays were performed in 96-well round bottom polystyrene plates (Corning) with a final volume of 100 µl in LB supplemented with tween-80 at 0.0005%. […] Polymyxin B sulfate (TCI Co. Ltd), polymyxin B nonapeptide (PMBN) (Sigma), and brevicidine (Genentech) were diluted directly in the assay plates. Bacteria were diluted in LB with tween-80 0.0005% and added to a final OD600 of 0.0005. Growth was measured via OD600 on a SpectraMax M5 plate reader after overnight static growth at 37 °C with humidity.

In experiment [3] the test system is E. coli mcr1. The experiment is classed as cell-based. Conditions: for MIC: strain carrying plasmid encoding mcr-1, LB + 0.2% arabinose, carbenicillin, 0.0005% tween-80, overnight 37 °C. How it is done:
as §1

Where two headings read alike, the source gives them in different places. Bridge positions count the residues as written; N and C are the ends. Square brackets hold non-standard residues; d marks the D form. Peptide text beside a SMILES is read from it. * marks the point of attachment. X1 = CC[C@H](C)CCCCC(=O)*; Dab = NCC[C@H](N)C(=O)O

As for `CC(C)C[C@@H]1NC(=O)[C@@H](Cc2ccccc2)NC(=O)[C@H](CCN)NC(=O)[C@@H](NC(=O)[C@H](CCN)NC(=O)[C@@H](N)[C@@H](C)O)CCNC(=O)[C@H]([C@@H](C)O)NC(=O)[C@H](CCN)NC(=O)[C@H](CCN)NC1=O` [PMBN] (H-T[Dab][Dab][Dab][dF]L[Dab][Dab]T; lactam 3-C), the Kd in experiment [1] (no pre-saturation) stood at 0.288 µM. The MIC in experiment [2] and in experiment [3] was above 40 µM in each case.

On to `CC[C@H](C)CCCCC(=O)N[C@@H](CCN)C(=O)N[C@H](C(=O)N[C@@H](CCN)C(=O)N[C@H]1CCNC(=O)[C@H]([C@@H](C)O)NC(=O)[C@H](CCN)NC(=O)[C@H](CCN)NC(=O)[C@H](CC(C)C)NC(=O)[C@@H](Cc2ccccc2)NC(=O)[C@H](CCN)NC1=O)[C@@H](C)O` [Polymyxin B] (X1-[Dab]T[Dab][Dab][Dab][dF]L[Dab][Dab]T; lactam 4-C (inferred); N-terminus assumed), for which the Kd in experiment [1] (isolated reversible binding, OMVs pre-saturated with 5 µM polymyxin B) came to 0.517 µM. Further, the “antibacterial activity” value in experiment [2] and in experiment [3] (pBAD-mcr-1) was “resistant to killing by polymyxin B” each time. Moreover, the MIC – broadly, the lowest concentration found to suppress growth – in experiment [2] was 10 µM; in experiment [3] it was 2.5 to 5 µM.

Values taken from paper PMC11148078, “Potent activity of polymyxin B is associated with long-lived super-stoichiometric accumulation mediated by weak-affinity binding to lipid A” (Nature Communications, 2024).
